Reference: patent US4661592A, “4H-pyrimido[2,1-a]isoquinolin-4-one derivatives” (G. D. Searle & Co., priority 1984, dated 1987)

Assay: Food intake test in food-deprived rats (anorectic activity)
Assay type: in vivo, Male Sprague-Dawley derived rats
Settings: rat, 32.0 mg/kg i.g., 24 h food-deprived, food given 30 min after dosing; for Food Intake, % of control, 1 Hr.: 1 hour intake; for Food Intake, % of control, 2 Hr.: 2 hour intake; for Food Intake, % of control, 6 Hr.: 6 hour intake
Procedure: Male Sprague-Dawley derived rats, Charles River Breeders (Portage, MI), weighing between 200-400 grams at the time of testing, were employed in the food intake studies and water intake studies. The rats were housed individually and kept on a 12 hour light-dark-light cycle. The room temperature ranged between 23°-25° C. The rats employed in food intake testing were food deprived on the day preceding testing and were divided into experimental groups that were matched on the basis of average daily food intake and body weight. At approximately 24 hour post-deprivation, the rats were administered a test sample containing as the active ingredient a compound of the present invention. All test samples employed herein were prepared and homogenized in a vehicle of normal saline (to which a few drops of PG/Tween 80 was added). The test samples were administered at an injection volume of 2 ml/kg, unless otherwise stated. Thirty minutes following administration of the test samples, pre-weighed food jars containing ground meal were placed in the rats' cages. (Prior to testing the rats were given ground meal for a minimum of 3 days to familiarize the rats with this food.) After 1, 2 and 6 hours of food access, the jars were removed, weighed and returned to the rats' cages providing a 1, 2 and 6 hours intake measurement. […] The results obtained are represented in Table I as a percent of control values. A student t test was used for making statistical comparisons, and the p-values are based upon two-tailed comparisons. The compound employed as the active ingredient on the test sample is indicated by the example number which describes its preparation.

Q: What does the source list for `O=c1c(CO)cnc2c3ccccc3ccn12` [Example 1, 3-(hydroxymethyl)-4H-pyrimido [2,1-a]isoquinolin-4-one]?
A: Food Intake, % of control, 1 Hr.: 61.8 % of control; Food Intake, % of control, 2 Hr.: 77.4 % of control; Food Intake, % of control, 6 Hr.: 90.4 % of control

Q: For `CC(=O)OCc1cnc2c3ccccc3ccn2c1=O` [Example 2, 3-(hydroxymethyl)-4H-pyrimido[2,1-a]isoquinolin-4-one acetate], which “Food Intake, % of control, 1 Hr.” value is on record?
A: 51.4 % of control

Q: What about the “Food Intake, % of control, 2 Hr.” value of the same compound?
A: 67.1 % of control

Q: And the “Food Intake, % of control, 6 Hr.” value?
A: 89.8 % of control

Q: Which “Food Intake, % of control, 1 Hr.” value does the source give for `Cl.Cl.NCc1cnc2c3ccccc3ccn2c1=O` [Example 3, 3-(aminomethyl)-4H-pyrimido[2,1-a]isoquinolin-4-one, dihydrochloride] here?
A: 51.3 % of control

Q: And the “Food Intake, % of control, 2 Hr.” value?
A: 71.4 % of control

Q: And the “Food Intake, % of control, 6 Hr.” value?
A: 92.3 % of control

Q: Which “Food Intake, % of control, 1 Hr.” value does the source give for `CCN(CC)CCOCc1cnc2c3ccccc3ccn2c1=O.Cl.Cl` [Example 4, 3-[[2-(diethylamino)ethoxy]methyl]-4H-pyrimido[2,1-a]isoquinolin-4-one dihydrochloride] here?
A: 70.8 % of control

Q: What about the “Food Intake, % of control, 2 Hr.” value of the same compound?
A: 80.8 % of control

Q: And the “Food Intake, % of control, 6 Hr.” value?
A: 90.9 % of control

Q: Which “Food Intake, % of control, 1 Hr.” value does the source give for `CN(C)CCNC(=O)c1cnc2c3ccccc3ccn2c1=O` [Example 5] here?
A: 82.4 % of control

Q: And the “Food Intake, % of control, 2 Hr.” value?
A: 87.5 % of control

Q: What about the “Food Intake, % of control, 6 Hr.” value of the same compound?
A: 88.3 % of control
